Measured values published in PMC6173406, “Design and evaluation of selective butyrylcholinesterase inhibitors based on Cinchona alkaloid scaffold” (PLoS ONE, 2018).

Key:
[1] = biological target: T1, human AChE (Homo sapiens, UniProt P22303); assay: Reversible inhibition of human AChE, Ellman method with ATCh, Hunter-Downs analysis; type: biochemical; set-up: key to AChE type of inhibition: c, n and m stands for competitive, noncompetitive and mixed type of inhibition; c, n and m stands for competitive, noncompetitive and mixed type of inhibition; c, n and m stands for competitive, noncompetitive and mixed type of inhibition; settings: for Ki: enzyme-inhibitor dissociation constant ± standard error, ATCh 0.050–0.50 mM, pH 7.4, 25 °C; for AChE Ks: enzyme-substrate (ATCh) dissociation constant derived from the inhibition kinetics with the compound; for AChE type of inhibition: symbol in brackets after Ki
T1 construct: gift of Dr. F. Nachon (Département de Toxicologie, Armed Forces Biomedical Research Institute, France)
Experimental: (§1) Purified human BChE and recombinant human AChE were kindly provided by Dr. F. Nachon (Département de Toxicologie, Armed Forces Biomedical Research Institute, France). The concentration of enzymes (BChE: 5.6 μM; AChE: 0.20 μM) was determined as described previously. The concentrated stocks of enzymes were diluted in a phosphate sodium buffer 0.1 M (pH 7.4) containing 0.1% BSA.
(§2) Enzyme activities were measured spectrophotometrically by Ellman method at 412 nm using 0.30 mM DTNB as thiol reagent and ATCh (0.050–0.50 mM) as substrate in 0.1 M phosphate buffer, pH 7.4 [29, 30]. For the inhibition, the reaction mixture also contained cinchonidines or cinchonines (final concentrations 0.020–200 μM, depending on compound). In the case of compounds CD-(pCl) and CN-(pCl), the final content of DMSO was the same in enzyme activity measurement and in inhibition measurements, up to 0.32%. No side interactions of tested compounds with ATCh or DTNB were detected. Measurements were done at 25 °C on a Tecan Infinite M200Pro plate reader (Austria).
(§3) The reversible inhibition of BChE and AChE by cinchonines and cinchonidines was measured by determining the decrease of enzyme activity towards ATCh (0.050–0.50 mM) in their presence. The activities of the enzymes were measured at different substrate concentrations ([S]) in the absence (v0) and presence (vi) of given cinchonines and cinchonidines concentration ([I]) selected to inhibit the enzymes for 20–80%. At least three concentrations of inhibitors for each substrate concentration were used in at least two experiments. The apparent dissociation inhibition constant (Ki,app) was calculated using the Hunter-Downs equation and the linear regression analysis: Ki,app=vi/v0−vi⋅[I]=K(I)+K(I)/K(S)⋅[S] where y-intercept determines the enzyme-inhibitor dissociation constants (K(I)), while x-intercept determines the enzyme-substrate dissociation constant, K(S). The equation was used with the assumption that the substrate, due to relatively low substrate concentrations used in experiments, binds only to the catalytic site, while inhibitor can bind to both sites catalytic and peripheral site. In other words, if the inhibitor competes with substrate for binding to the catalytic site of the enzyme, Ki,app proportionally depend on the substrate concentration. […] The curve means that the inhibitor binds not only to the catalytic or peripheral site but also to intermediates of Michaelis type of the enzyme-substrate complex.

[2] = biological target: T2, human BChE (Homo sapiens, UniProt P06276); assay: Reversible inhibition of human BChE, Ellman method with ATCh, Hunter-Downs analysis; type: biochemical; set-up: key to BChE type of inhibition: c, n and m stands for competitive, noncompetitive and mixed type of inhibition; c, n and m stands for competitive, noncompetitive and mixed type of inhibition; c, n and m stands for competitive, noncompetitive and mixed type of inhibition; settings: for Ki: enzyme-inhibitor dissociation constant ± standard error, ATCh 0.050–0.50 mM, pH 7.4, 25 °C; for BChE Ks: enzyme-substrate (ATCh) dissociation constant derived from the inhibition kinetics with the compound; for Ki(AChE)/ Ki (BChE): inhibition selectivity, ratio of Ki constants for AChE and BChE; for BChE inhibition potency compared to CD-Met: fold more potent than CD-Met
T2 construct: gift of Dr. F. Nachon (Département de Toxicologie, Armed Forces Biomedical Research Institute, France)
Experimental: as §1, §2, §3

T2 sequence (P06276 29-602): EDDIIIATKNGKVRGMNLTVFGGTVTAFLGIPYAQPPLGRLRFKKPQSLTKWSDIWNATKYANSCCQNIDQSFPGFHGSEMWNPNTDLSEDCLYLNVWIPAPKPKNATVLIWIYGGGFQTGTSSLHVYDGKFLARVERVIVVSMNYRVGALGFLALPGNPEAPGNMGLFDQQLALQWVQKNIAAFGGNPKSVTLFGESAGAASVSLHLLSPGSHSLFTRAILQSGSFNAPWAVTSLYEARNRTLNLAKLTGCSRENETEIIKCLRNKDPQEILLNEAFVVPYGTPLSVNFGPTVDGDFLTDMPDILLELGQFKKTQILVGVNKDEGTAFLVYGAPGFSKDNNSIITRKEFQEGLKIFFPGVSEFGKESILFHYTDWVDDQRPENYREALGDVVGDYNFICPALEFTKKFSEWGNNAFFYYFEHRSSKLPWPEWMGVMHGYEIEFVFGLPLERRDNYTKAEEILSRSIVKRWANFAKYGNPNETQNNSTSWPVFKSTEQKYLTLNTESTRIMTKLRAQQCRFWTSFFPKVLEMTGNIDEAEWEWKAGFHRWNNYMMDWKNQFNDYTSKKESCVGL
T1 sequence (P22303 32-614): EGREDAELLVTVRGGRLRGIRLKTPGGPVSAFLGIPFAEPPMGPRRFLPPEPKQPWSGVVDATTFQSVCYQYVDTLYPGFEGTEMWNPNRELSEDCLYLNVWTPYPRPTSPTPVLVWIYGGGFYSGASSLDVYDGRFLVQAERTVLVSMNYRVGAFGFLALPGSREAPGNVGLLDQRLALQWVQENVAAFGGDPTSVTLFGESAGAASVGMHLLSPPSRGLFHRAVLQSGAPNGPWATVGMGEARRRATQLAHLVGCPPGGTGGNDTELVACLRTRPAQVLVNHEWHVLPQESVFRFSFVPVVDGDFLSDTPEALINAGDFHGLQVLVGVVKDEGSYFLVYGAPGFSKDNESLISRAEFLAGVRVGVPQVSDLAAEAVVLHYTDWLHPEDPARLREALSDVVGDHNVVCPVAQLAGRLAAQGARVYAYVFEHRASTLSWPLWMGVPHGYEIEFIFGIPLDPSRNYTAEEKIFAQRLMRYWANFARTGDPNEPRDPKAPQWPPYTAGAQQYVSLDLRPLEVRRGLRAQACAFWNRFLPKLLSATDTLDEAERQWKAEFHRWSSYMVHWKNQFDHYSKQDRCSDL

Structure (SMILES)	AChE affinity lower than for the highest-affinity compounds ([1]; compared to CD-(mNO2) and CD-(mCH3))	Ki [1] [µM]	Ki [2] [µM]	BChE Ks [2] [mM]	Ki(AChE)/ Ki (BChE) [2]	BChE type of inhibition ([2]; symbol in brackets after Ki)	AChE Ks [1] [mM]	AChE type of inhibition [1]	BChE affinity lower compared to CD-(pBr) ([2]; fold lower affinity than CD-(pBr))	BChE inhibition potency compared to CD-Met [2]	BChE type of inhibition ([2]; substrate concentrations higher than 0.35 mM, deviation from linearity in Hunter-Downs plot)
C=C[C@H]1CN2CC[C@H]1C[C@H]2[C@H](O)c1ccnc2ccccc12 [CD, cinchonidine, reference compound]	about 160 times	> 400	28 ± 4	0.25 ± 0.05	~14	c					
C=CC1C[N+]2(Cc3cccc([N+](=O)[O-])c3)CCC1CC2C(O)c1ccnc2ccccc12 (centres unmarked) [CN-(mNO2)]		8.6 ± 0.5	4.2 ± 0.3	0.35 ± 0.04	2.1	m	0.72 ± 0.10	m			
C=CC1C[N+]2(Cc3cccc(Cl)c3)CCC1CC2C(O)c1ccnc2ccccc12 (centres unmarked) [CN-(mCl)]		56 ± 8	5.4 ± 0.5	0.63 ± 0.12	10	m	0.19 ± 0.03	c			
C=CC1C[N+]2(C)CCC1CC2C(O)c1ccnc2ccccc12 (centres unmarked) [CN-Met]		42 ± 4	29 ± 4	0.35 ± 0.07		c	0.32 ± 0.05	c	approximately 730 times		
C=CC1C[N+]2(Cc3cccc([N+](=O)[O-])c3)CCC1CC2C(O)c1ccnc2ccccc12 (centres unmarked) [CD-(mNO2), N-(3-nitrobenzyl) cinchonidinium bromide]		2.5 ± 0.2	4.7 ± 0.4	0.62 ± 0.1		m	1.0 ± 0.2	c		only five times higher	
C=CC1C[N+]2(Cc3cccc(Br)c3)CCC1CC2C(O)c1ccnc2ccccc12 (centres unmarked) [CD-(mBr), N-(3-bromobenzyl) cinchonidinium bromide]		20 ± 1	0.6 ± 0.03	0.50 ± 0.05	33	m	0.91 ± 0.08	m		44 times	
C=CC1C[N+]2(Cc3ccc(Cl)cc3)CCC1CC2C(O)c1ccnc2ccccc12 (centres unmarked) [CN-(pCl)]		40 ± 4	6.2 ± 0.8	0.49 ± 0.12	6.4	m		n			mixed inhibition
C=CC1C[N+]2(Cc3cccc(Br)c3)CCC1CC2C(O)c1ccnc2ccccc12 (centres unmarked) [CN-(mBr)]		39 ± 2	2.3 ± 0.2	0.48 ± 0.09	17	m	0.73 ± 0.08	m			
C=CC1C[N+]2(Cc3ccc(C)cc3)CCC1CC2C(O)c1ccnc2ccccc12 (centres unmarked) [CN-(pCH3), N-(4-methylbenzyl) cinchoninium bromide]		42 ± 2	3.1 ± 0.3	0.33 ± 0.05	13	c	2.0 ± 0.2	c			
C=CC1C[N+]2(Cc3ccc(Br)cc3)CCC1CC2C(O)c1ccnc2ccccc12 (centres unmarked) [CN-(pBr)]		31 ± 1	3.5 ± 0.3	0.44 ± 0.07	8.8	c	2.7 ± 0.9	m			
C=CC1C[N+]2(Cc3cccc(C)c3)CCC1CC2C(O)c1ccnc2ccccc12 (centres unmarked) [CN-(mCH3), N-(3-methylbenzyl) cinchoninium bromide]		49 ± 2	4.6 ± 0.4	0.53 ± 0.00	11	m	0.66 ± 0.06	m			
